We go through 1 compound from patent publication US20080047904A1, “Treatment for Hydrostatic Testing Water” (priority 2004, published 2008).

One data set concerns Medinia beryllina larvae. Kind of data set: 48-hour acute LC50 assay, static renewal. The format is in vivo. As for the experimental part: (§1) The test concentrations were prepared daily, and used immediately for test initiation and renewal. The total residual chlorine was measured in the highest concentration tested for each sample. The measured chlorine concentrations were used to calculate the estimated chlorine concentrations at the lower sample dilutions in these tests. Both range finder and definitive assays were conducted.
(§2) A second set of experiments were conducted to mimic aged treated seawater. This attempted to model water that had been held in a pipeline for 24 hours, and then discharged. The experiments were identical to those described in the preceding paragraph, except that the highest test concentrations were prepared 24 hours before exposure to the test organisms. These same solutions were then used to prepare the 24 hour static renewal concentrations. The residual chlorine concentrations were measured when the test organisms were initially exposed to the toxic insult. These measurement were used to calculate the estimated chlorine concentrations at the lower sample dilutions in these tests, and after the static renewal at 24 hours.

In data set [1] the test system is Mysidopsis bahia juveniles. Kind of data set: 48-hour acute LC50 assay, static renewal. The format is in vivo. The procedure:
as §1, §2

Data set [2] in a line: Reversion of phosphonate to orthophosphate by oxidizing biocides. The format is physicochemical. The following applies: 10 ppm oxidant (as Cl2) dosed, pH 9.1, 23° C. The procedure:
The biocides studied consisted of WELLGUARD® 7030, bleach (NaOCl), and activated sodium bromide (NaOCl and NaBr). The WELLGUARD® 7030 and bleach were added directly. Activated sodium bromide was prepared in situ by introducing 20 ppm bromide ion to the stock solution followed by addition of bleach. The phosphonates used in this work consisted of AMP (aminomethylene phosphonic acid), HEDP (hydroxyethylidene diphosphonic acid), and PBTC (phosphonobutanetricarboxylic acid). These materials were commercial samples (Mayoquest 1320, 1500, and 2100, respectively) obtained from Callaway Chemical Co. (Smyrna, Ga.).
Solutions consisting of 5 ppm scale inhibitor (as active phosphonate) in the presence of 10 ppm oxidant (as Cl2) were prepared as follows. To 900 mL deionized water were added appropriate stock solutions containing phosphonate, alkalinity (NaHCO3), and calcium hardness (CaCl2). The pH was adjusted to 9.1 with 5% aq. NaOH and diluted up to 1 L in a dark amber bottle. A dose of oxidant was added to achieve a residual of 10 ppm. The solutions were then periodically monitored for phosphonate reversion by determining the reversion to orthophosphate (Hach method 490). The oxidant residual was also periodically monitored using the DPD method (Hach method 80). All of this work was performed at room temperature (23° C.). […]

Where [3] appears, read: aged: highest test concentrations prepared 24 hours before exposure.
Setting [4] is: fresh test solutions, static renewal at 24 hours.

Take `[Na+].[O-]Cl` [Bleach, NaOCl]: the “48-hour acute LC50” value is reported as 0.50 ppm as Cl2 in the data set with Medinia beryllina larvae (setting [3]), 0.57 ppm as Cl2 in the data set on Medinia beryllina larvae (setting [4]), 0.42 ppm as Cl2 in data set [1] (setting [3]) and 0.34 ppm as Cl2 in data set [1] (setting [4]). Also, the “Cl2 (oxidant residual)” value in data set [2] (5 ppm AMP, 460 minutes) is recorded as 9.4 ppm; in data set [2] (5 ppm HEDP, 400 minutes), 10.6 ppm.
